Results on two molecules are retold here after patent publication US20160067193A1, “TOPICAL PTEROSTILBENE COMPOSITIONS FOR USE IN TREATING UV-INDUCED SKIN DAMAGE AND HYPERPLASIA” (The Regents of the University of California, priority 2014, published 2016).

The subject of data set [1] is skin of SKH-1 mice. Put plainly: ELISA of UV-B induced DNA damage (CPD, 64 pp) in back skin DNA of SKH-1 mice. The class given is in vivo. The conditions noted are these: topical 10 μmol/mouse before 180 mJ/cm^2 UV-B, 14-day experiment. The text has this: FIGS. 3A and 3B depict the manner in which pterostilbene prevents UV-B induced DNA damage in the skin of SKH-1 mice, namely (A) CPD or (B) 64 pp DNA damage. ELISAs are shown for different arms of mouse study (Abs. 492 nm). * indicates p<0.01 as compared with vehicle (VEH). (RES) is resveratrol and (PTERO) is pterostilbene. NS is not significant.
(§1) UV-B exposure. Mice were exposed to a single dose of 180 mJ/cm^2 UVB radiation delivered via broadband UVB lamps (TL 40 W/12 RS; Philips) emitting 290-350 nm light with a peak emission at 312 nm. The irradiance was measured using a thermopile sensor (818P-001-12; Newport Inc., Irvine, Calif.) and power meter (842-PE; Newport Inc.).
ELISAS. DNA was isolated from snap frozen whole back skin using Qiagen QIAamp Blood mini kit (cat #51104) per manufacturer's instructions. ELISAs were performed on purified DNA with anti-CPD (clone TDM2) and anti-64 PP (clone 64M-2) antibodies using manufacturer's protocol and read using a DTX 800 Multimode Detector plate reader (Beckman Coulter) using standard settings from colorimetric detection. Four technical replicates were used and DNA-free wells were used as negative control.
Hairless SKH-1 mice were used to evaluate the effectiveness of pterostilbene at preventing UV-mediated damage in skin. The SKH-1 model is ideally suited for this purpose and is commonly used in preclinical studies and yielded valuable results. […] To ascertain if pterostilbene could also prevent those molecular alterations, we replicated these experiments. […] For all topical treatments 200 μl total volume was applied to the back skin of the mouse. For acetone group, 200 μl of acetone was applied. […] These mice were treated every 2 days for 7 total treatments. […] 24 hrs after last treatment, mice were euthanized, skin bi-fold measurements taken and back skins collected. As shown in FIGS. 2 and 3A-B, pterostilbene prevented UV-B-induced damage in mouse skin. […] This prevention of visual skin damage by pterostilbene correlated nicely with the prevention of DNA damage. […] Therefore pterostilbene prevented the 2 major types of UV-induced DNA damage (CPD and 64 pp) in the skin of SKH-1 mice.
DNA was obtained from the back skin of the SKH-1 mice from the experiment above after completion of the 14-day experiment. This DNA was then examined for DNA damage (both CPD and 64 pp) quantitatively using ELISA as previously described (Nishiwaki, Y., et al., “Trichothiodystrophy fibroblasts are deficient in the repair of ultraviolet-induced cyclobutane pyrimidine dimers and (6-4) photoproducts,” J. Invest. Dermatol. (2004) 122: 526-32). […] Quantification of DNA damage was measured at 492 nm by a spectrophotometer.

For data set [2] the following is noted: 125 mg orally twice a day, human; cited from earlier work.
The conditions of data set [3]: rats, relative to resveratrol; cited from earlier work.
Data set [4] has as its system skin of SKH-1 mice. Put plainly: UV-B induced visual skin damage (redness) in SKH-1 mice, topical treatment. The class given is in vivo. The conditions noted are these: topical 10 μmol/0.2 ml acetone/mouse 30 min before 180 mJ/cm^2 UV-B, every 2 days, 7 treatments, 5 mice per group. The procedure:
FIG. 2 depicts the manner in which pterostilbene prevents UV-B induced damage in the skin of SKH-1 mice. […] Photographs show representative mice after 4th treatment.
as §1
Hairless SKH-1 mice were used to evaluate the effectiveness of pterostilbene at preventing UV-mediated damage in skin. The SKH-1 model is ideally suited for this purpose and is commonly used in preclinical studies and yielded valuable results. […] To ascertain if pterostilbene could also prevent those molecular alterations, we replicated these experiments. […] For all topical treatments 200 μl total volume was applied to the back skin of the mouse. For acetone group, 200 μl of acetone was applied. […] These mice were treated every 2 days for 7 total treatments. […] 24 hrs after last treatment, mice were euthanized, skin bi-fold measurements taken and back skins collected. As shown in FIGS. 2 and 3A-B, pterostilbene prevented UV-B-induced damage in mouse skin. […] This prevention of visual skin damage by pterostilbene correlated nicely with the prevention of DNA damage. […]

For data set [5] the following is noted: cited from earlier work; for bioavailability: in vivo.
In data set [6] the test system is skin of SKH-1 mice. Put plainly: UV-B mediated bi-fold skin thickening and hyperplasia (H&E) in SKH-1 mice. The conditions noted are these: topical 10 μmol/mouse before 180 mJ/cm^2 UV-B. The class given is in vivo. The procedure:
FIG. 3C depicts the manner in which pterostilbene prevents UV-mediated bi-fold skin thickening. Bi-fold skin measurements (mm) were made using a digital caliper. At least three measurements for each mouse were taken along the back.
FIG. 4 depicts the manner in which pterostilbene prevents UV-mediated hyperplasia. H&E stains of back skins from mice in the indicated treatment arms (i.e., UV-B treated and control) were performed.
as §1
Hairless SKH-1 mice were used to evaluate the effectiveness of pterostilbene at preventing UV-mediated damage in skin. The SKH-1 model is ideally suited for this purpose and is commonly used in preclinical studies and yielded valuable results. […] To ascertain if pterostilbene could also prevent those molecular alterations, we replicated these experiments. […] For all topical treatments 200 μl total volume was applied to the back skin of the mouse. For acetone group, 200 μl of acetone was applied. […] These mice were treated every 2 days for 7 total treatments. […]

Another data set deals with mouse epidermis. The conditions noted are these: cited from earlier work.
A short description of data set [7]: In vitro glucuronidation assay with pooled human liver microsomes. The class given is in vitro ADME. The conditions noted are these: 100 μg pooled human liver microsomes (n=20), 500 μM compound, HPLC 308 nm.

Regarding `COc1cc(/C=C/c2ccc(O)cc2)cc(OC)c1` [pterostilbene, 3,5-dimethoxy-4′-hydroxy-trans-stilbene], in the data set on skin of SKH-1 mice [1], the “64 pp DNA damage by ELISA (Abs. 492 nm)” value is listed as “no 64 pps are observed” and the “CPD DNA damage by ELISA (Abs. 492 nm)” value was “no CPDs were detected”. For the same molecule, in data set [2], the overall blood pressure entry is “reduction in overall blood pressure was observed” and the toxicity in patients entry is on record as “no toxicity reported”. In addition, the “increased bioavailability versus resveratrol” value in data set [3] was 5 fold. Further, in the data set with skin of SKH-1 mice [4], the “redness (sunburn) on back skin” value is on record as “no redness was observed on any of the 5 mice”. Besides, in data set [5], the “half life t1/2 in blood” value is “about 105 minutes” and the “bioavailability” value is listed as “orally bioavailable”. Besides, the “UV-mediated bi-fold skin thickening” value in the data set with skin of SKH-1 mice [6] (digital caliper on dorsal skin, versus vehicle+UV-B) is reported as “prevented UV-mediated bi-fold skin thickening”. For the same molecule, the “UV-mediated hyperplasia (H&E stain of back tissue)” value in the data set with skin of SKH-1 mice [6] (formalin fixed paraffin embedded back tissue) is recorded as “prevented UV-mediated hyperplasia at the cellular level”. Also, the “COX-2 activation and TPA-induced tumor formation in mouse epidermis in vivo” value in the data set with mouse epidermis (12-O-tetradecanoylphorbol-13-acetate (TPA), mouse epidermis in vivo) is “prevent COX-2 activation and 12-O-tetradecanoylphorbol-13-acetate (TPA)-induced tumor formation”. For the same molecule, the “potency versus resveratrol in inhibition of NF-KB, AP-1 and iNOS activation in mouse skin” value in the data set with mouse epidermis (mouse skin) is “equally or significantly more potent than resveratrol”. Moreover, the “extent of metabolism (glucuronidation) after 2 hours” value in data set [7] stood at 20%.

As for `Oc1ccc(C=Cc2cc(O)cc(O)c2)cc1` [resveratrol, reference compound], in the data set with skin of SKH-1 mice [1], the “64 pp DNA damage by ELISA (Abs. 492 nm)” value is listed as “no 64 pps are observed” and the “CPD DNA damage by ELISA (Abs. 492 nm)” value is “quantitatively detected above background”. In addition, in the data set on skin of SKH-1 mice [4], the “redness (sunburn) on back skin” value was “able to limit the amount of redness observed on the back, it did not prevent it”. Moreover, in data set [5], the “half life t1/2 in blood” value is given as “about 14 minutes” and the “bioavailability” value is recorded as “poor bioavailability”.
